Starred links: 1 amine or outer side, 2 acyl side, 3 side chain; linkers in the order of their positions; H or OH if unused. Residues, ends and D or L forms follow the SMILES beside them. Groups on a side chain read outwards from the residue. *: point of attachment. C20 diacid = O=C(O)CCCCCCCCCCCCCCCCCCC(=O)*; γGlu = O=C(O)[C@H](CCC(=O)[*:2])N[*:1]; AEEA = NCCOCCOCC(=O)O
Tests used:
[1] = Subchronic unilateral ischemia-reperfusion injury (uIRI) in mice; type: in vivo; conditions: for BW at termination / Kidney weight at termination: ± SEM
Excerpt: Male C57BL/6jRj mice were obtained from JanVier (JanVier Labs, France) at 10 weeks of age. The animals were single-housed in Individually Ventilated Cages (IVC from Tecniplast, Typ I SL cage) with free access to water, food and encrichments. Animals were allowed to acclimatize for 7 days prior to study start. After acclimatization, animals were randomized into groups based on body weight; 1) Sham, 2) uIRI - Vehicle, 3) uIRI -SEQ ID NO: 3, 30 nmol/kg and 4) uIRI -SEQ ID NO: 3, 100 nmol/kg.
On study day 0, unilateral ischemia-reperfusion injury (uIRI, 25 min of occlusion followed by reperfusion) was performed on study group 2 - 4 (followed by uninephrectomy (UNx) on study day 6. Animals were subcutaneously dosed once daily starting prior to IRI surgery and until study day 7, where animals were terminated. Here plasma was collected, and the remaining kidney weighed and sampled for histological analysis. Kidneys were stained, analyzed and quantified using the following markers: collagen type-1 (col1a1), F4/80 and KIM-1.

[2] = Telemetry in mice (blood pressure, heart frequency); type: in vivo
Method: Blood pressure and heart frequency were monitored in freely moving conscious mice by radiotelemetry (PA-C10, Data Sciences). Briefly, analgesia with metamizole (100 mg / kg sc) was performed. For implantation of the telemetry transmitter, the animals were anesthetized with isoflurane with 5% induction and 2% maintenance. The neck was opened in the area of the hyoid bone up to the sternum in the median line. A subcutaneous pocket for the transmitter housing was prepared. The dextra carotid artery was then bluntly exposed and clamped. The […] was pushed caudally into the carotid artery through an incision. The catheter was fixed with a monofilament prolene thread, which also closed the incision. The vessel was also ligated cranially, and the clamp was then removed. The transmitter housing was pushed subcutaneously into a prepared skin pocket on the side opposite the catheter. Finally, the skin wound was closed. Postoperatively, an antibiotic (Ursocyclin® 10, Serumwerk Bernburg AG, Germany; 400 mg/l drinking water for 10 days) and an analgesic (Rimadyl®, 4 mg/kg sc for 3 days) were administered postoperatively.
For arterial blood pressure measurements, the animals were kept in a 12h: 12h day night cycle in a suitable room for at least one day before the first measurement. Animals were administrated s.c once daily in the morning for 7 consecutive days with either 1) Placebo, 2) SEQ ID NO: 3, 10 nmol/kg, 3) SEQ ID NO: 3, 30 nmol/kg or 4) SEQ ID NO: 3, 100 nmol/kg in a cross over design with 2 animals per group (n = 6-8) per week and with 1 week washout between treatments. The telemetric measurement took place over 24 hours.
For statistical analysis, 5 hours means were calculated starting from one hour after dosing and one hour after lights off. All data were evaluated using a 2-way ANOVA with Dunnett's test.

[3] = 100 nmol/kg, compared to uIRI vehicle
[4] = conscious healthy mice, s.c. once daily 7 days, 10-100 nmol/kg
[5] = mice, 10 nmol/kg, 1. dark period
[6] = mice, 10 nmol/kg, 2. dark period
[7] = mice, 10 nmol/kg, 3. dark period
[8] = mice, 10 nmol/kg, 4. dark period
[9] = mice, 10 nmol/kg, 5. dark period
[10] = mice, 10 nmol/kg, 6. dark period
[11] = mice, 10 nmol/kg, Baseline dark period
[12] = mice, 30 nmol/kg, 1. dark period
[13] = mice, 30 nmol/kg, 2. dark period
[14] = mice, 30 nmol/kg, 3. dark period
[15] = mice, 30 nmol/kg, 4. dark period
[16] = mice, 30 nmol/kg, 5. dark period
[17] = mice, 30 nmol/kg, 6. dark period
[18] = mice, 30 nmol/kg, Baseline dark period
[19] = mice, 100 nmol/kg, 1. dark period
[20] = mice, 100 nmol/kg, 2. dark period
[21] = mice, 100 nmol/kg, 3. dark period
[22] = mice, 100 nmol/kg, 4. dark period
[23] = mice, 100 nmol/kg, 5. dark period
[24] = mice, 100 nmol/kg, 6. dark period
[25] = mice, 100 nmol/kg, Baseline dark period

## CC[C@H](C)[C@H](N)C(=O)N[C@H](C(=O)N[C@@H](CC(C)C)C(=O)N[C@@H](CO)C(=O)N[C@@H](CC(C)C)C(=O)N[C@@H](CC(=O)O)C(=O)N[C@H](C(=O)N1CCC[C@H]1C(=O)N[C@H](C(=O)NCC(=O)N[C@@H](CC(C)C)C(=O)N[C@@H](CC(C)C)C(=O)N[C@@H](CCC(N)=O)C(=O)N[C@H](C(=O)N[C@@H](CC(C)C)C(=O)N[C@@H](CC(C)C)C(=O)N[C@@H](CCC(=O)O)C(=O)N[C@@H](CCC(N)=O)C(=O)N[C@@H](C)C(=O)N[C@@H](CCCNC(=N)N)C(=O)N[C@@H](C)C(=O)N[C@@H](CCCNC(=N)N)C(=O)N[C@@H](C)C(=O)N[C@@H](C)C(=O)N[C@@H](CCCNC(=N)N)C(=O)N[C@@H](CCC(=O)O)C(=O)N[C@@H](CCC(N)=O)C(=O)N[C@@H](C)C(=O)N[C@@H](CCCCNC(=O)COCCOCCNC(=O)COCCOCCNC(=O)CC[C@H](NC(=O)CC[C@H](NC(=O)CCCCCCCCCCCCCCCCCCC(=O)O)C(=O)O)C(=O)O)C(=O)N[C@H](C(=O)N[C@@H](CC(N)=O)C(=O)N[C@@H](C)C(=O)N[C@@H](CCC(=O)O)C(=O)N[C@H](C(=O)N[C@@H](CC(C)C)C(=O)N[C@@H](C)C(=O)N[C@@H](CCC(=O)O)C(=O)N[C@H](C(N)=O)C(C)C)[C@@H](C)CC)[C@@H](C)O)[C@@H](C)CC)[C@@H](C)CC)C(C)C)C(C)C [SEQ ID NO: 3] (H-IVLSLDVPIGLLQILLEQARARAAREQAK([AEEA-AEEA-γGlu-γGlu-C20 diacid])TNAEILAEV-NH2)
[1]; 30 nmol/kg
  Renal fibrosis, Col1a1: 34.3 ± 2.3 fractional area %
  Renal inflammation, F4/80: 7.3 ± 0.6 fractional area %
  Renal injury, KIM-1: 7.48 ± 0.49 fractional area %
  Serum creatinine: 1.83 ± 0.004 mg/dL
  Serum urea: 463.0 ± 10.5 mg/dL
  BW at termination: 24.4 ± 0.5 g
  Kidney weight at termination: 0.16 ± 0.005 g
[1]; 100 nmol/kg
  Renal fibrosis, Col1a1: 26.4 ± 1.4 fractional area %
  Renal inflammation, F4/80: 2.5 ± 0.6 fractional area %
  Renal injury, KIM-1: 6.00 ± 0.50 fractional area %
  Serum creatinine: 1.17 ± 0.13 mg/dL
  Serum urea: 433 ± 22.5 mg/dL
  BW at termination: 21.8 ± 0.4 g
  Kidney weight at termination: 0.16 ± 0.006 g
[1]; [3]
  kidney fibrosis: reduced
  kidney inflammation: reduced
  serum levels of creatinine: reduced
[2]; [4]
  Heart rate: permanent increase
  mean arterial blood pressure: transient and dose-dependent effect
[2]; [5]
  Heart rate: 617.82 ± 17.8 BPM
  Mean arterial pressure: 102.19 ± 4.0 mmHg
[2]; mice, 10 nmol/kg, 1. dose
  Heart rate: 590.34 ± 26.4 BPM
  Mean arterial pressure: 97.23 ± 3.7 mmHg
[2]; [6]
  Heart rate: 576.21 ± 15.5 BPM
  Mean arterial pressure: 102.50 ± 2.9 mmHg
[2]; mice, 10 nmol/kg, 2. dose
  Heart rate: 526.42 ± 18.4 BPM
  Mean arterial pressure: 89.86 ± 2.5 mmHg
[2]; [7]
  Heart rate: 570.38 ± 9.8 BPM
  Mean arterial pressure: 101.92 ± 1.5 mmHg
[2]; mice, 10 nmol/kg, 3. dose
  Heart rate: 517.24 ± 12.1 BPM
  Mean arterial pressure: 89.07 ± 1.9 mmHg
[2]; [8]
  Heart rate: 557.65 ± 11.8 BPM
  Mean arterial pressure: 103.17 ± 1.7 mmHg
[2]; mice, 10 nmol/kg, 4. dose
  Heart rate: 521.88 ± 17.1 BPM
  Mean arterial pressure: 96.25 ± 1.4 mmHg
[2]; [9]
  Heart rate: 548.23 ± 8.3 BPM
  Mean arterial pressure: 105.59 ± 1.5 mmHg
[2]; mice, 10 nmol/kg, 5. dose
  Heart rate: 515.46 ± 3.8 BPM
  Mean arterial pressure: 93.27 ± 1.8 mmHg
[2]; [10]
  Heart rate: 571.18 ± 17.4 BPM
  Mean arterial pressure: 104.54 ± 1.8 mmHg
[2]; mice, 10 nmol/kg, 6. dose
  Heart rate: 538.37 ± 13.6 BPM
  Mean arterial pressure: 99.01 ± 3.0 mmHg
[2]; [11]
  Heart rate: 573.24 ± 24.3 BPM
  Mean arterial pressure: 117.13 ± 6.7 mmHg
[2]; [12]
  Heart rate: 636.57 ± 28.2 BPM
  Mean arterial pressure: 97.14 ± 2.8 mmHg
[2]; mice, 30 nmol/kg, 1. dose
  Heart rate: 637.60 ± 39.0 BPM
  Mean arterial pressure: 83.81 ± 3.9 mmHg
[2]; [13]
  Heart rate: 579.68 ± 23.9 BPM
  Mean arterial pressure: 102.00 ± 4.4 mmHg
[2]; mice, 30 nmol/kg, 2. dose
  Heart rate: 534.13 ± 15.4 BPM
  Mean arterial pressure: 89.68 ± 5.3 mmHg
[2]; [14]
  Heart rate: 621.30 ± 9.5 BPM
  Mean arterial pressure: 106.02 ± 3.9 mmHg
[2]; mice, 30 nmol/kg, 3. dose
  Heart rate: 524.21 ± 17.2 BPM
  Mean arterial pressure: 93.98 ± 4.5 mmHg
[2]; [15]
  Heart rate: 650.03 ± 9.0 BPM
  Mean arterial pressure: 106.67 ± 4.8 mmHg
[2]; mice, 30 nmol/kg, 4. dose
  Heart rate: 576.95 ± 21.0 BPM
  Mean arterial pressure: 94.91 ± 5.0 mmHg
[2]; [16]
  Heart rate: 628.77 ± 14.9 BPM
  Mean arterial pressure: 107.74 ± 5.7 mmHg
[2]; mice, 30 nmol/kg, 5. dose
  Heart rate: 552.59 ± 12.9 BPM
  Mean arterial pressure: 94.31 ± 5.2 mmHg
[2]; [17]
  Heart rate: 625.92 ± 11.6 BPM
  Mean arterial pressure: 109.48 ± 6.3 mmHg
[2]; mice, 30 nmol/kg, 6. dose
  Heart rate: 558.58 ± 15.1 BPM
  Mean arterial pressure: 97.05 ± 6.6 mmHg
[2]; [18]
  Heart rate: 573.65 ± 26.2 BPM
  Mean arterial pressure: 111.32 ± 3.0 mmHg
[2]; [19]
  Heart rate: 593.28 ± 23.1 BPM
  Mean arterial pressure: 86.82 ± 2.2 mmHg
[2]; mice, 100 nmol/kg, 1. dose
  Heart rate: 692.31 ± 7.0 BPM
  Mean arterial pressure: 83.22 ± 5.6 mmHg
[2]; [20]
  Heart rate: 517.97 ± 16.2 BPM
  Mean arterial pressure: 98.30 ± 4.8 mmHg
[2]; mice, 100 nmol/kg, 2. dose
  Heart rate: 507.39 ± 8.1 BPM
  Mean arterial pressure: 89.63 ± 4.9 mmHg
[2]; [21]
  Heart rate: 591.77 ± 7.0 BPM
  Mean arterial pressure: 101.88 ± 5.1 mmHg
[2]; mice, 100 nmol/kg, 3. dose
  Heart rate: 536.49 ± 10.4 BPM
  Mean arterial pressure: 92.77 ± 4.1 mmHg
[2]; [22]
  Heart rate: 606.21 ± 10.1 BPM
  Mean arterial pressure: 103.60 ± 5.3 mmHg
[2]; mice, 100 nmol/kg, 4. dose
  Heart rate: 560.41 ± 16.0 BPM
  Mean arterial pressure: 94.17 ± 3.4 mmHg
[2]; [23]
  Heart rate: 619.17 ± 11.0 BPM
  Mean arterial pressure: 103.68 ± 4.4 mmHg
[2]; mice, 100 nmol/kg, 5. dose
  Heart rate: 554.35 ± 15.3 BPM
  Mean arterial pressure: 91.26 ± 2.0 mmHg
[2]; [24]
  Heart rate: 612.05 ± 11.8 BPM
  Mean arterial pressure: 103.45 ± 3.1 mmHg
[2]; mice, 100 nmol/kg, 6. dose
  Heart rate: 550.11 ± 16.2 BPM
  Mean arterial pressure: 88.76 ± 1.3 mmHg
[2]; [25]
  Heart rate: 581.49 ± 7.7 BPM
  Mean arterial pressure: 108.55 ± 1.2 mmHg

Reference: EP4810052A2, “HCRHR2 SELECTIVE POLYPEPTIDES” (Gubra A/S, priority 2023, dated 2026)
